Results reported in ChEMBL document CHEMBL5724914, “Linking interpersonal differences in gut microbiota composition and drug biotransformation activity” (2024).

Conditions: human gut metagenome, 24 h, 2 µM
Also: call rule not given here.

Bacterial Biotransformation	SMILES
Compound NOT metabolized	COc1ccccc1OCC(O)COC(N)=O (stereo not given) [METHOCARBAMOL]

Test: (§1) The drug is tested on Z-003 corresponding to pig gut metagenome with ENA study accession number: PRJEB37062 and ENA sample accession number: ERS12561803 for biotransformation under anaerobic condition. The drug concentrations were measured over 9 timepoints collected between 0 and 24 hours of incubation by liquid-chromatography-coupled mass spectrometry (LC–MS)
Conditions: 2 µM

Bacterial Biotransformation	SMILES
Compound NOT metabolized	COc1ccccc1OCC(O)COC(N)=O (stereo not given) [METHOCARBAMOL]

Test: as §1, with “Z-012” for “Z-003”, “to” for “to pig gut”, “ERS12561812” for “ERS12561803”
Conditions: 2 µM

Bacterial Biotransformation	SMILES
Compound NOT metabolized	COc1ccccc1OCC(O)COC(N)=O (stereo not given) [METHOCARBAMOL]

Test: as §1, with “Z-007” for “Z-003”, “rat” for “pig”, “ERS12561807” for “ERS12561803”
Conditions: 2 µM

Bacterial Biotransformation	SMILES
Compound NOT metabolized	COc1ccccc1OCC(O)COC(N)=O (stereo not given) [METHOCARBAMOL]

Test: as §1, with “WLS-350” for “Z-003”, “human” for “pig”, “ERS12561789” for “ERS12561803”
Conditions: 2 µM

Bacterial Biotransformation	SMILES
Compound NOT metabolized	COc1ccccc1OCC(O)COC(N)=O (stereo not given) [METHOCARBAMOL]

Conditions: human gut metagenome, 24 h, 2 µM
Remark: another data set of the same source

Bacterial Biotransformation	SMILES
Compound NOT metabolized	COc1ccccc1OCC(O)COC(N)=O (stereo not given) [METHOCARBAMOL]

Test: as §1, with “Z-029” for “Z-003”, “rat” for “pig”, “ERS12561828” for “ERS12561803”
Conditions: 2 µM

Bacterial Biotransformation	SMILES
Compound NOT metabolized	COc1ccccc1OCC(O)COC(N)=O (stereo not given) [METHOCARBAMOL]

Conditions: human gut metagenome, 24 h, 2 µM
Remark: another data set of the same source

Bacterial Biotransformation	SMILES
Compound NOT metabolized	COc1ccccc1OCC(O)COC(N)=O (stereo not given) [METHOCARBAMOL]

Test: as §1, with “Z-005” for “Z-003”, “to” for “to pig gut”, “ERS12561805” for “ERS12561803”
Conditions: 2 µM

Bacterial Biotransformation	SMILES
Compound NOT metabolized	COc1ccccc1OCC(O)COC(N)=O (stereo not given) [METHOCARBAMOL]

Test: as §1, with “WLS-240” for “Z-003”, “human” for “pig”, “ERS12561773” for “ERS12561803”
Conditions: 2 µM

Bacterial Biotransformation	SMILES
Compound NOT metabolized	COc1ccccc1OCC(O)COC(N)=O (stereo not given) [METHOCARBAMOL]

Conditions: human gut metagenome, 24 h, 2 µM
Remark: another data set of the same source

Bacterial Biotransformation	SMILES
Compound NOT metabolized	COc1ccccc1OCC(O)COC(N)=O (stereo not given) [METHOCARBAMOL]

Conditions: human gut metagenome, 24 h, 2 µM
Remark: another data set of the same source

Bacterial Biotransformation	SMILES
Compound NOT metabolized	COc1ccccc1OCC(O)COC(N)=O (stereo not given) [METHOCARBAMOL]

Test: as §1, with “Z-018” for “Z-003”, “ERS12561817” for “ERS12561803”
Conditions: 2 µM

Bacterial Biotransformation	SMILES
Compound NOT metabolized	COc1ccccc1OCC(O)COC(N)=O (stereo not given) [METHOCARBAMOL]

Conditions: human gut metagenome, 24 h, 2 µM
Remark: another data set of the same source

Bacterial Biotransformation	SMILES
Compound NOT metabolized	COc1ccccc1OCC(O)COC(N)=O (stereo not given) [METHOCARBAMOL]

Conditions: human gut metagenome, 24 h, 2 µM
Remark: another data set of the same source

Bacterial Biotransformation	SMILES
Compound NOT metabolized	COc1ccccc1OCC(O)COC(N)=O (stereo not given) [METHOCARBAMOL]

Conditions: human gut metagenome, 24 h, 2 µM
Remark: another data set of the same source

Bacterial Biotransformation	SMILES
Compound NOT metabolized	COc1ccccc1OCC(O)COC(N)=O (stereo not given) [METHOCARBAMOL]

Conditions: human gut metagenome, 24 h, 2 µM
Remark: another data set of the same source

Bacterial Biotransformation	SMILES
Compound NOT metabolized	COc1ccccc1OCC(O)COC(N)=O (stereo not given) [METHOCARBAMOL]

Conditions: human gut metagenome, 24 h, 2 µM
Remark: another data set of the same source

Bacterial Biotransformation	SMILES
Compound NOT metabolized	COc1ccccc1OCC(O)COC(N)=O (stereo not given) [METHOCARBAMOL]

Test: as §1, with “WLS-082” for “Z-003”, “human” for “pig”, “ERS12561751” for “ERS12561803”
Conditions: 2 µM

Bacterial Biotransformation	SMILES
Compound NOT metabolized	COc1ccccc1OCC(O)COC(N)=O (stereo not given) [METHOCARBAMOL]

Conditions: human gut metagenome, 24 h, 2 µM
Remark: another data set of the same source

Bacterial Biotransformation	SMILES
Compound NOT metabolized	COc1ccccc1OCC(O)COC(N)=O (stereo not given) [METHOCARBAMOL]
